Test [1] has as its target T1, BTK (Homo sapiens, UniProt Q06187). As to the kind of experiment: Assay to determine BTK inactivation rate in human whole blood (ELISA of unoccupied BTK). It is filed as cell-based. On the set-up: Human whole blood is obtained from StemExpress; tissue StemExpress; host or cells: human whole blood. Conditions: 37° C., 5, 15, 30, 60 minutes; for kinact/KI: read-out: BTK hWB Kinact/Ki. On the procedure: Human Whole Blood Compound Treatment and Lysis
Human whole blood is obtained from StemExpress and kept at ambient temperature until the time of the experiment. […] This is prepared fresh each experimental day. […] Compounds are reconstituted to stocks of 10 mM and are diluted in two-fold serial dilutions to generate an 8-point curve in DMSO, with the last point being DMSO only, creating a 100× dilution series. A working 10× dilution series is created using 1.0 μL of the prepared DMSO titration, 100×, into […] 1×PBS in order to keep the DMSO constant. The human whole blood is added in the volume of 225 μL per well in a new 96w v-bottom plate, where one column of eight wells is sufficient for testing one compound. For compound treatment, 25 μL of 10× dilution series in PBS is added to the 225 μL whole blood, followed by briefly pipetting up and down twice. The plates are covered with lids and incubated at 37° C. for 5, 15, 30, 60 minutes. At each timepoint, 30 μL of treated blood is pulled from each column and added to preloaded collection plates that contain 30 μL of supplemented lysis buffer and mixed briefly. The collected and lysed samples shake on rotator for 60 minutes at room temperature. These samples are used fresh for detection via ELISA, and remaining sample is frozen at −80° C. if a repeat is necessary.
ELISA: Determining Amount of Unoccupied BTK
All streptavidin pre-coated plates (R&D Systems, #CP004) are brought to room temperature while samples are lysing. Assay Buffer 1, 1×PBS+0.05% Tween 20+1% BSA is prepared and stored at 4° C. when not in use. Using this Assay Buffer, assay buffer+1× protease/phosphatase inhibitor cocktail (PICs) is prepared in the amount needed for all samples. Assay Buffer+PICs in the volume of 90 μL/well is added to the ELISA plate. Lysed blood sample (10 μL) is added to the ELISA plate. BTK recombinant protein dilutions are prepared in assay buffer+PICS for use as a μM). The standard is loaded into the ELISA plate at 100 μL/well, in duplicate. These samples and standards remain in the plate, sealed, overnight at 4° C. The following day, the plate is washed four times with 1× Wash Buffer (1×PBS+0.05% Tween 20) using a plate washer. The plate is inverted to expel all fluid each time and blotted on clean paper towels to remove remaining liquid. Assay Buffer 2 is prepared (1×PBS+0.05% Tween 20+0.05% BSA) and kept at 4° C. when not in use. […] Diluted a-BTK antibody is added at 100 μl/well. The plate is covered with adhesive film and incubated for 90 minutes at room temperature. The plate is washed four times with 1× Wash Buffer (1×PBS+0.05% Tween 20) using a plate washer. The plate is inverted to expel all fluid each time and blotted on clean paper towels to remove remaining liquid. […] The diluted antibody is added at 100 μl/well. The plate is covered with adhesive film and incubated for one hour at room temperature. The plate is washed four times with 1× Wash Buffer using a plate washer. The plate is inverted to expel all fluid each time and blotted on clean paper towels to remove remaining liquid. […] The plate is incubated at room temperature in the dark for −5-10 minutes. The reaction is stopped by adding 50 μl/well 2N sulfuric acid (H2SO4) (R&D Systems, #DY994). The plate is read in a plate reader at the wavelengths […] and 570 nm (correction wavelength). Using Graphpad Prism, an XY table+graph is created, listing 0-60 minutes as X axis and concentration as Y axis. A One Phase Decay model fit is applied to the data. Checking Results table, the K values are obtained and new XY table+graph are created. Concentration is assigned to the X axis and K values from first analysis are entered. The Michaelis-Menten equation is applied to the data.

Test [2] addresses T1, BTK. As to the kind of experiment: Assay to determine activity against BTK (EZ reader, FLPeptide). Conditions: ATP (1 mM), BTK (2 nM), room temperature for 90 minutes. It is filed as biochemical. On the set-up: purchased Carna. How it is done:
Solutions of compounds (test or control) in DMSO were prepared at the desired concentrations, and serially diluted to 11 concentrations by 3-fold dilution in 384pp-plate using TECAN EVO200. 20 nL of stock were transferred to 384 plate using Echo550. DMSO was used as vehicle control.
Two separate solutions were prepared—an ATP solution containing MgCl2 (10 mM), Brij-35 (0.01%), DTT (2 mM), BSA (0.05%), EGTA (1 mM), HEPE (pH7.5) (50 mM), FLPeptide (6 uM) and ATP (4 mM); and a BTK solution containing MgCl2 (10 mM), Brij-35 (0.01%), DTT (2 mM), BSA (0.05%), EGTA (1 mM), HEPE (pH7.5) (50 mM) and BTK (2.67 nM). […] (Note the final volume of each well was 20 uL containing MgCl2 (10 mM), Brij-35 (0.01%), DTT (2 mM), BSA (0.05%), EGTA (1 mM), HEPE (pH7.5) (50 mM), FLPeptide (1.5 uM), ATP (1 mM) and BTK (2 nM).
The plates were incubated at room temperature for 90 minutes and then stopping buffer added (75 uL, containing 0.5 M EDTA) to terminate the reaction. Samples from each well were analyzed using EZ reader. The % remaining activity was calculated using read conversion ratio (CR) according to the equation: […]
XLFit (equation 201) was used to calculate IC50s by floating both bottom and top.
With respect to BTK activity, Table 4 lists activity as follows: • “A” denotes an IC50 of less than 10 nM, • “B” denotes an IC50 of from 10 nM to less than 100 nM; and • “C” denotes and IC50 of 100 nM or more.

In test [3] the test system is BTK Activity in RAMOS B Cells. As to the kind of experiment: Assay to determine BTK activity in RAMOS B cells (anti-IgM, FLIPR Calcium 6). It is filed as cell-based. The following applies: EC80 anti-IgM, FLIPR calcium read. How it is done:
On the day before assay, Ramos B cells were plated in plating medium (RPMI1640 medium containing 1% FBS and 1× pencillin-streptomycin). On the day of the assay, 2× dye solution was prepared following the manual of the FLIRP Calcium 6 Assay Kit: Dilute the dye with assay buffer (20 mM HEPES in 1×HBSS, pH7.4); Add probenecid to the final concentration of 5 mM; vortex vigorously for 1-2 minutes. Cells were collected by centrifuging, and the pellet was resuspended in plating medium. After counting, cells were resuspended at a density of 3×10^6/ml in plating medium. Equal volume of 2× dye solution was added to the cell suspension. Cells were then plated at 20 μl/well into a 384-well poly-D-lysine coated plate. Plate was centrifuged at 1000 rpm for 3 minutes and then incubated at 37° C. for 2 hours followed by an additional 15-minute incubation at 25° C. Compounds were prepared at 3× concentration in dilution buffer (20 mM HEPES and 0.1% BSA in 1×HBSS, pH 7.4). Serially diluted compound was transferred from source plate to a 384-well compound plate by using an Echo 550 (Labcyte). 20 μl/well compound dilution buffer was added to the compound plate and mixed on plate shaker for 2 mins. 4×EC80 of Anti-IgM (Jackson ImmunoResearch) was prepared in dilution buffer and 20 μl/well was added to a new 384-well compound plate. After 60 mins of incubation at 25° C. in the dark; cell plate, compound plate containing 4×EC80 of anti-IgM and FLIPR tips were placed into FLIPR (Molecular Devices). 10 ul/well of 4×EC80 anti-IgM was transferred to the cell plate by FLIPR. Plates were read for 160 sec with 1 sec interval.
With respect to Ramos activity, Table 9 lists activity as follows: • “A” denotes an IC50 of less than 10 nM; • “B” denotes an IC50 of from 10 nM to less than 100 nM; and • “C” denotes and IC50 of 100 nM or more.

pIC50: −log10 of the molar value.

T1 sequence (Q06187 whole entry): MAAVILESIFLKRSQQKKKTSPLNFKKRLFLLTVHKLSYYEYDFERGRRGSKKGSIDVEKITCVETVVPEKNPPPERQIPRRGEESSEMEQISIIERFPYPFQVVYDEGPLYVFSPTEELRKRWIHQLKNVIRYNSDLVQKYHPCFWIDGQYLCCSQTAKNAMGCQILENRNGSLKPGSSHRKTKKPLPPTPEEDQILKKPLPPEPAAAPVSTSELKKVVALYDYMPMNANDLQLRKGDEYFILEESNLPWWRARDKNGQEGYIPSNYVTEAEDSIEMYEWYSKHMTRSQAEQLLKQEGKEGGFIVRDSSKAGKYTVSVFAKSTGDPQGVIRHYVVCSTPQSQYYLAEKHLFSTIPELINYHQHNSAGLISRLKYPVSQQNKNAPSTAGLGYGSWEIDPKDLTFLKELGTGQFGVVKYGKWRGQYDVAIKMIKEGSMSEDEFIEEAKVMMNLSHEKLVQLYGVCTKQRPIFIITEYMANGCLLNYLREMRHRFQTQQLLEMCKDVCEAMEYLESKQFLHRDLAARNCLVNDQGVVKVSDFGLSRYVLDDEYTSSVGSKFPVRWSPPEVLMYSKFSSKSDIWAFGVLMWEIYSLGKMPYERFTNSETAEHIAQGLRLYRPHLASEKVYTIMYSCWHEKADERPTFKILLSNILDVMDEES

`CC#CC(=O)N[C@H]1C[C@H](F)CN(c2c(F)cc(C(N)=O)c3[nH]c(C)c(Cl)c23)C1` [Compound 28, 4-((3S,5S)-3-(but-2-ynamido)-5-fluoropiperidin-1-yl)-3-chloro-5-fluoro-2-methyl-1H-indole-7-carboxamide]: the kinact/KI in test [1] is 1670 to 16700 M⁻¹ s⁻¹. The pIC50 in test [2] is more than 8.00; in test [3] (Homo sapiens, Ramos) it was more than 8.00.
Regarding `C=CC(=O)N[C@H]1C[C@H](F)CN(c2c(F)cc(C(N)=O)c3[nH]c(C)c(C)c23)C1` [Compound 36, 4-((3S,5S)-3-acrylamido-5-fluoropiperidin-1-yl)-5-fluoro-2,3-dimethyl-1H-indole-7-carboxamide], the kinact/KI in test [1] is more than 16700 M⁻¹ s⁻¹. Also, the negative logarithm of the IC50 (pIC50) in test [2] is more than 8.00; in test [3] (Homo sapiens, Ramos), more than 8.00.
With `C=CC(=O)N1CCC[C@H](c2c(F)c(F)c(C(N)=O)c3[nH]c(C)c(Cl)c23)C1` [Compound 15, (R)-4-(1-acryloylpiperidin-3-yl)-3-chloro-5,6-difluoro-2-methyl-1H-indole-7-carboxamide], the kinact/KI in test [1] is more than 16700 M⁻¹ s⁻¹. Besides, the pIC50 in test [2] was 7.00 to 8.00; in test [3] (Homo sapiens, Ramos), 7.00 to 8.00.
With `C=CC(=O)N1CCc2c(cccc2-c2c(F)cc(C(N)=O)c3[nH]c(C)c(Cl)c23)C1` [Compound 20a, 4-(2-acryloyl-1,2,3,4-tetrahydroisoquinolin-5-yl)-3-chloro-5-fluoro-2-methyl-1H-indole-7-carboxamide], the kinact/KI in test [1] is less than 1670 M⁻¹ s⁻¹. Besides, the negative-log IC50 (pIC50) in test [2] is more than 8.00; in test [3] (Homo sapiens, Ramos), more than 8.00.
On to `C=CC(=O)N1CCC2CCN(c3c(F)cc(C(N)=O)c4[nH]c(C)c(C)c34)CC21` (single isomer, unassigned) [Compound 32a, 4-(1-acryloyloctahydro-6H-pyrrolo[2,3-c]pyridin-6-yl)-5-fluoro-2,3-dimethyl-1H-indole-7-carboxamide], for which the “BTK hWB Kinact/Ki” value in test [1] was “A (a Kinact/Ki >10×10^−4 nM^−1 min^−1)”. In addition, the pIC50 in test [2] was 7.00 to 8.00; in test [3] (Homo sapiens, Ramos), 7.00 to 8.00.
In the case of `C=CC(=O)N1CCC2CCN(c3c(F)cc(C(N)=O)c4[nH]c(C)c(C)c34)CC21` (stereo not drawn) [Compound 32, 4-(1-acryloyloctahydro-6H-pyrrolo[2,3-c]pyridin-6-yl)-5-fluoro-2,3-dimethyl-1H-indole-7-carboxamide], the kinact/KI in test [1] is less than 1670 M⁻¹ s⁻¹. Also, the pIC50 in test [2] was 7.00 to 8.00; in test [3] (Homo sapiens, Ramos), 7.00 to 8.00.
As for `C=CC(=O)N1CCC[C@H](c2c(F)cc(C(N)=O)c3[nH]c(C)c(Cl)c23)C1` [Compound 2b, (R)-4-(1-acryloylpiperidin-3-yl)-3-chloro-5-fluoro-2-methyl-1H-indole-7-carboxamide], in test [1], the kinact/KI lay in the range of 1670 to 16700 M⁻¹ s⁻¹. The pIC50 was 7.00 to 8.00 in test [2] and 7.00 to 8.00 in test [3] (Homo sapiens, Ramos).
For the compound `C=CC(=O)N1CCC=C(c2c(F)c(F)c(C(N)=O)c3[nH]c(C)c(Cl)c23)C1` [Compound 4, 4-(1-acryloyl-1,2,5,6-tetrahydropyridin-3-yl)-3-chloro-5,6-difluoro-2-methyl-1H-indole-7-carboxamide], the kinact/KI in test [1] is more than 16700 M⁻¹ s⁻¹. For the same compound, the negative-log IC50 (pIC50) was more than 8.00 in test [2] and more than 8.00 in test [3] (Homo sapiens, Ramos).
As for `C=CC(=O)N1CCC2CCN(c3c(F)cc(C(N)=O)c4[nH]c(C)c(Cl)c34)CC21` (single isomer, unassigned) [Compound 29b, 4-(1-acryloyloctahydro-6H-pyrrolo[2,3-c]pyridin-6-yl)-3-chloro-5-fluoro-2-methyl-1H-indole-7-carboxamide], the pIC50 is more than 8.00 in test [2] and 7.00 to 8.00 in test [3].
Take `C=CC(=O)N1CCc2c(cccc2-c2c(F)cc(C(N)=O)c3[nH]c(C)c(F)c23)C1` (atropisomer, axis not shown) [Compound 20f, (R)-4-(2-acryloyl-1,2,3,4-tetrahydroisoquinolin-5-yl)-3,5-difluoro-2-methyl-1H-indole-7-carboxamide]: the negative logarithm of the IC50 (pIC50) in test [2] and in test [3] was not above 7.00 each time.
In the case of `C=CC(=O)N1Cc2cccc(-c3c(F)cc(C(N)=O)c4[nH]c(C)c(Cl)c34)c2C2(CC2)C1` (single isomer, unassigned) [Compound 24d], the pIC50 in test [2] and in test [3] was not above 7.00 throughout.

These data come from patent US12448363B2, “Kinase inhibitors” (Vidya Therapeutics, Inc., priority 2020, dated 2025).
